{"source": "patent US6989263B1", "about": "“Method for identifying and using compounds that inactivate HIV-1 and other retroviruses by attacking highly conserved zinc fingers in the viral nucleocapsid protein” (The United States of America as represented by the …, priority 1994, dated 2006)", "note": "Entries after “also recorded” stand apart in the source; their conditions may differ."}
{"biological_target": "T1, p7NC (Human immunodeficiency virus type 1 group M subtype B, UniProt P05888)", "T1 construct": "The NC protein of HIV-1 (MN) p7NC was expressed in E. coli; made in house; host or cells: E. coli (vector pMAL-c)", "assay": "HPLC analysis of reaction products of purified p7NC with reagent", "type": "biochemical, HIV-1", "design": "key to Protein (HPLC): reaction products / Protein (HPLC): reaction rate: formation of non-native, intra-protein disulfide links (designated “Disulfides”); some of the reagents form adducts with the cysteine residues as well (designated “Adducts”); slow: “Slow” reactions are those in which greater than 10% of the p7NC protein remained in its native form after the 10 minute incubation with reagent; very slow: “Very slow” reactions are those in which greater than 50% of the p7NC protein remained in its native form after the 10 minute incubation with reagent; fast: “Fast” reactions result in complete transformation of the p7NC protein to non-native conformations during the 10 minute incubation period", "details": "not given", "from_the_text": "(§1) Highly purified retroviral NC proteins can be produced by expression from vectors generated through recombinant DNA technology. These proteins when reconstituted with zinc (see, Summers, et al., Protein Science 1:563–567 (1992) for methods), provide the source of the NC proteins containing the zinc fingers that are the targets for attack by the compounds of this invention. When the zinc fingers in NC proteins react with identified compounds, the reaction produces a covalent change in the NC protein, and the modified protein can be separated from the unreacted protein by, for example, reversed phase HPLC.\n(§2) Samples of p7NC and apo-p7 were reacted with varying amounts of cupric chloride and resulting products separated by HPLC. The reactions were carried out using 44.3 μM protein (p7NC or apo-p7) in 0.1 M Tris-HCl, pH 7.4, for 6 minutes at room temperature with varying concentrations of CuCl2 to achieve the indicated ratios of reactants, in a final volume of 0.7 ml. Chromatography was carried out on the resulting products at pH 2 (0.05% trifluoroacetic acid) on μBondapak™ C-18 (3.9×300 mm) at 1.0 ml/minute using an acetonitrile gradient (0–17%, 20 ml; 17–20%, 60 ml; 20–60%, 10 ml). Elution positions of unreacted protein (p7NC or apo-p7) are indicated as apo-p7.\n(§3) A two-fold excess of NOBA was reacted with p7NC, and the products were separated by HPLC (FIG. 10) as described above for Cu^+2 and p7NC. Elution positions for the reactants (NOBA and unreacted p7NC) and products, reacted p7NC, NOBA, HABA and AzoxyBA are indicated and an elution profile is included in FIG. 10. NOBA and AzoxyBA were supplied by Octamer, Inc. (Mill Valley, Calif.) and used as HPLC standards.\n(§4) The disulfide reagent of choice (each available from the Aldrich Chemical Company (Milwaukee, Wis.)) was incubated for 10 minutes with purified p7NC protein (63 μM) at a ratio of 6 molecules of reagent to 1 molecule of NC protein (there are 6 cysteine thiols per NC protein). The formation of non-native protein conformations was monitored by HPLC as described above. […] Generally, the inactivation proceeds by formation of non-native, intra-protein disulfide links (designated “Disulfides”), but some of the reagents form adducts with the cysteine residues as well (designated “Adducts”). “Slow” reactions are those in which greater than 10% of the p7NC protein remained in its native form after the 10 minute incubation with reagent. “Very slow” reactions are those in which greater than 50% of the p7NC protein remained in its native form after the 10 minute incubation with reagent. “Fast” reactions result in complete transformation of the p7NC protein to non-native conformations during the 10 minute incubation period."}
{"smiles": "NC(=O)SCC(=O)NNc1ccccc1", "note": "[2-(Carbamoylthio)-Acetic Acid 2-Phenylhydrazide]", "reaction with purified p7NC (HPLC), in words": "caused intra-chain disulfide formation"}
{"smiles": "CCN1C(=O)C=CC1=O", "note": "[NEM, N-ethylmaleimide]", "reaction with purified p7NC (HPLC), in words": "form adducts with the p7NC protein"}
{"biological_target": "T1, p7NC", "assay": "HPLC analysis of reaction products of purified p7NC with reagent", "type": "biochemical, HIV-1", "design": "key to Protein (HPLC): reaction products / Protein (HPLC): reaction rate: formation of non-native, intra-protein disulfide links (designated “Disulfides”); some of the reagents form adducts with the cysteine residues as well (designated “Adducts”); slow: “Slow” reactions are those in which greater than 10% of the p7NC protein remained in its native form after the 10 minute incubation with reagent; very slow: “Very slow” reactions are those in which greater than 50% of the p7NC protein remained in its native form after the 10 minute incubation with reagent; fast: “Fast” reactions result in complete transformation of the p7NC protein to non-native conformations during the 10 minute incubation period", "details": "63 μM p7NC, 6 reagent : 1 protein, 10 minutes", "from_the_text": "as §1, §2, §3, §4"}
{"smiles": "O[C@@H]1CSSC[C@H]1O", "note": "(relative stereo) [Trans-1,2-Dithiane-4,5-Diol]", "Protein (HPLC): reaction products": "Disulfides", "Protein (HPLC): reaction rate": "(slow) (“Slow” reactions are those in which greater than 10% of the p7NC protein remained in its native form after the 10 minute incubation with reagent)"}
{"smiles": "Nc1c(SSc2ccc3ccccc3c2N)ccc2ccccc12", "note": "[2,2-Dithiobis(1-Naphtylamine)]", "Protein (HPLC): reaction products": "Disulfides; also recorded: Adducts", "Protein (HPLC): reaction rate": "(fast)"}
{"smiles": "COc1cccc(SSc2cccc(OC)c2OC)c1OC", "note": "[2,3-Dimethoxyphenyl Disulfide]", "Protein (HPLC): reaction products": "Adducts"}
{"smiles": "Clc1cc(Cl)c(SSc2cc(Cl)c(Cl)cc2Cl)cc1Cl", "note": "[2,4,5-Trichlorophenyl Disulfide]", "Protein (HPLC): reaction products": "Disulfides"}
{"smiles": "Cc1ccc(SSc2ccc([N+](=O)[O-])cc2[N+](=O)[O-])cc1", "note": "[2,4-Dinitrophenyl p-Tolyl Disulfide]", "Protein (HPLC): reaction products": "Disulfides; also recorded: Adducts", "Protein (HPLC): reaction rate": "(fast)"}
{"smiles": "CCN(CC)CCSSCCN(CC)CC", "note": "[2-(Diethylamino)ethyl Disulfide]", "Protein (HPLC): reaction products": "Disulfides"}
{"smiles": "CCOC(=O)Nc1ccccc1SSc1ccccc1NC(=O)OCC", "note": "[2-(Ethoxycarboxamido)phenyl Disulfide]", "Protein (HPLC): reaction products": "Disulfides; also recorded: Adducts"}
{"smiles": "CC(=O)Nc1ccccc1SSc1ccccc1NC(C)=O", "note": "[2-Acetamidophenyl Disulfide]", "Protein (HPLC): reaction products": "Disulfides; also recorded: (Adducts)"}
{"smiles": "Nc1cc(Cl)ccc1SSc1ccc(Cl)cc1N", "note": "[2-Amino-4-Chlorophenyl Disulfide]", "Protein (HPLC): reaction products": "Disulfides; also recorded: Adducts", "Protein (HPLC): reaction rate": "(fast)"}
{"smiles": "Nc1ccccc1SSc1ccccc1N", "note": "[2-Aminophenyl Disulfide]", "Protein (HPLC): reaction products": "Disulfides; also recorded: Adducts", "Protein (HPLC): reaction rate": "(slow) (“Slow” reactions are those in which greater than 10% of the p7NC protein remained in its native form after the 10 minute incubation with reagent)"}
{"smiles": "O=[N+]([O-])c1ccc(Cl)c(SSc2cc([N+](=O)[O-])ccc2Cl)c1", "note": "[2-Chloro-5-Nitrophenyl Disulfide]", "Protein (HPLC): reaction products": "Disulfides"}
{"smiles": "c1ccc2nc(SSc3ccc4ccccc4n3)ccc2c1", "note": "[2-Quinolyl Disulfide]", "Protein (HPLC): reaction products": "Disulfides; also recorded: Adducts", "Protein (HPLC): reaction rate": "(slow) (“Slow” reactions are those in which greater than 10% of the p7NC protein remained in its native form after the 10 minute incubation with reagent)"}
{"smiles": "O=C(O)CCSSCCC(=O)O", "note": "[3,3-Dithiodipropionic Acid]", "Protein (HPLC): reaction products": "Disulfides", "Protein (HPLC): reaction rate": "(slow) (“Slow” reactions are those in which greater than 10% of the p7NC protein remained in its native form after the 10 minute incubation with reagent)"}
{"smiles": "O=[N+]([O-])c1cccc(SSc2cccc([N+](=O)[O-])c2)c1", "note": "[3-Nitrophenyl Disulfide]", "Protein (HPLC): reaction products": "Disulfides"}
{"smiles": "CC(=O)Nc1ccc(SSc2ccc(NC(C)=O)cc2)cc1", "note": "[4-Acetamidophenyl Disulfide]", "Protein (HPLC): reaction products": "Disulfides", "Protein (HPLC): reaction rate": "(slow) (“Slow” reactions are those in which greater than 10% of the p7NC protein remained in its native form after the 10 minute incubation with reagent)"}
{"smiles": "O=[N+]([O-])c1cc(SSc2ccc(Cl)c([N+](=O)[O-])c2)ccc1Cl", "note": "[4-Chloro-3-Nitrophenyl Disulfide]", "Protein (HPLC): reaction products": "Disulfides; also recorded: Adducts"}
{"smiles": "Cc1cc(SSc2cc(C)c3ccccc3n2)nc2ccccc12", "note": "[4-Methyl-2-Quinolyl Disulfide]", "Protein (HPLC): reaction products": "Disulfides; also recorded: Adducts", "Protein (HPLC): reaction rate": "(slow) (“Slow” reactions are those in which greater than 10% of the p7NC protein remained in its native form after the 10 minute incubation with reagent)"}
{"smiles": "CS(=O)(=O)c1ccc(SSc2ccc(S(C)(=O)=O)cc2[N+](=O)[O-])c([N+](=O)[O-])c1", "note": "[4-Methylsulfonyl-2-Nitrophenyl Disulfide]", "Protein (HPLC): reaction products": "Disulfides"}
{"smiles": "O=[N+]([O-])c1ccc(SSc2ccc([N+](=O)[O-])cc2)cc1", "note": "[4-Nitrophenyl Disulfide]", "Protein (HPLC): reaction products": "Disulfides; also recorded: Adducts", "Protein (HPLC): reaction rate": "(slow) (“Slow” reactions are those in which greater than 10% of the p7NC protein remained in its native form after the 10 minute incubation with reagent)"}
{"smiles": "Cc1ccc(SSc2ccc([N+](=O)[O-])cc2)cc1", "note": "[4-Nitrophenyl p-Tolyl Disulfide]", "Protein (HPLC): reaction products": "Disulfides; also recorded: Adducts", "Protein (HPLC): reaction rate": "(slow) (“Slow” reactions are those in which greater than 10% of the p7NC protein remained in its native form after the 10 minute incubation with reagent)"}
{"smiles": "O=C(O)c1cc(SSc2ccc([N+](=O)[O-])c(C(=O)O)c2)ccc1[N+](=O)[O-]", "note": "[5,5-Dithiobis(2-Nitrobenzoic Acid)]", "Protein (HPLC): reaction products": "Disulfides; also recorded: Adducts", "Protein (HPLC): reaction rate": "(fast)"}
{"smiles": "c1cc(SSc2ccncc2)ccn1", "note": "[Aldrithiol-4]", "Protein (HPLC): reaction products": "Disulfides"}
{"smiles": "CSSC(=O)c1ccccc1", "note": "[Benzoylmethyl Disulfide]", "Protein (HPLC): reaction products": "Adducts"}
{"smiles": "CC(C)OC(=S)SSC(=S)OC(C)C", "note": "[Isopropylxanthic Disulfide]", "Protein (HPLC): reaction products": "Disulfides"}
{"smiles": "CCOC(=S)SSC(=S)OCC", "note": "[O,O-Diethyl Dithiobis-(Thioformate)]", "Protein (HPLC): reaction products": "Disulfides; also recorded: Adducts"}
{"smiles": "Cc1ccc([S+]([O-])[S+]([O-])c2ccc(C)cc2)cc1", "note": "(stereo not drawn) [p-Tolyl Disulfoxide]", "Protein (HPLC): reaction products": "Disulfides", "Protein (HPLC): reaction rate": "(slow) (“Slow” reactions are those in which greater than 10% of the p7NC protein remained in its native form after the 10 minute incubation with reagent)"}
{"biological_target": "T1, p7NC", "assay": "HPLC analysis of reaction products of purified p7NC with reagent", "type": "biochemical, HIV-1", "design": "key to Protein (HPLC): reaction products / Protein (HPLC): reaction rate: formation of non-native, intra-protein disulfide links (designated “Disulfides”); some of the reagents form adducts with the cysteine residues as well (designated “Adducts”); slow: “Slow” reactions are those in which greater than 10% of the p7NC protein remained in its native form after the 10 minute incubation with reagent; very slow: “Very slow” reactions are those in which greater than 50% of the p7NC protein remained in its native form after the 10 minute incubation with reagent; fast: “Fast” reactions result in complete transformation of the p7NC protein to non-native conformations during the 10 minute incubation period", "details": "after a 10 minute incubation", "from_the_text": "as §1, §2, §3, §4"}
{"smiles": "NC(=O)SCC(=O)NNc1ccccc1", "note": "[2-(Carbamoylthio)-Acetic Acid 2-Phenylhydrazide]", "p7NC species in non-native conformations": "most"}
